Test system: 883617-216-R-J1-PDC complex spheroid viability
Assay: Anticancer human tumor 883617-216-R-J1-PDC patient-derived bladder carcinoma cell line growth inhibition
Details: for IC50: curve of first compound; for viability, T/C: stronger effect = lower value
Outline: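 Multicellular complex spheroids of tumor cells with human endothelial cells (HUVEC) and mesenchymal stem cells; the LSD1 inhibitor iadademstat was combined with standard-of-care or investigational agents. Top concentration at or near clinical Cmax, half-log dilutions; final DMSO ≤0.25%.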
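Also: exposure lasted seven days after three days of spheroid growth.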
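For viability, T/C in this document: 100% = DMSO vehicle control luminescence.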

Structure (SMILES): Nc1ccn(C2OC(CO)C(O)C2(F)F)c(=O)n1 (stereo not given) + NC1CCC(NC2CC2c2ccccc2)CC1
- IC50 (second compound 0.1 µM): < 0.000949 µM
- IC50 (second compound 0.316 µM): < 0.000949 µM
- IC50 (second compound 1 µM): < 0.000949 µM
- IC50 (second compound 3.16 µM): < 0.000949 µM
- IC50 (second compound 10 µM): < 0.000949 µM
- viability, T/C (second compound 0.1 µM, first compound 0.000949 µM): 28.7%
- viability, T/C (second compound 0.1 µM, first compound 0.003 µM): 20.4%
- viability, T/C (second compound 0.1 µM, first compound 0.00949 µM): 24.2%
- viability, T/C (second compound 0.1 µM, first compound 0.03 µM): 26.4%
- viability, T/C (second compound 0.1 µM, first compound 0.0949 µM): 25.9%
- viability, T/C (second compound 0.1 µM, first compound 0.3 µM): 18.2%
- viability, T/C (second compound 0.316 µM, first compound 0.000949 µM): 24.9%
- viability, T/C (second compound 0.316 µM, first compound 0.003 µM): 17.3%
- viability, T/C (second compound 0.316 µM, first compound 0.00949 µM): 23.6%
- viability, T/C (second compound 0.316 µM, first compound 0.03 µM): 22.4%
- viability, T/C (second compound 0.316 µM, first compound 0.0949 µM): 23.4%
- viability, T/C (second compound 0.316 µM, first compound 0.3 µM): 23.6%
- viability, T/C (second compound 1 µM, first compound 0.000949 µM): 28.2%
- viability, T/C (second compound 1 µM, first compound 0.003 µM): 19.7%
- viability, T/C (second compound 1 µM, first compound 0.00949 µM): 24.1%
- viability, T/C (second compound 1 µM, first compound 0.03 µM): 22.6%
- viability, T/C (second compound 1 µM, first compound 0.0949 µM): 22%
- viability, T/C (second compound 1 µM, first compound 0.3 µM): 21.7%
- viability, T/C (second compound 3.16 µM, first compound 0.000949 µM): 24.7%
- viability, T/C (second compound 3.16 µM, first compound 0.003 µM): 21.7%
- viability, T/C (second compound 3.16 µM, first compound 0.00949 µM): 22.3%
- viability, T/C (second compound 3.16 µM, first compound 0.03 µM): 21.6%
- viability, T/C (second compound 3.16 µM, first compound 0.0949 µM): 22.7%
- viability, T/C (second compound 3.16 µM, first compound 0.3 µM): 19.2%
- viability, T/C (second compound 10 µM, first compound 0.000949 µM): 30.5%
- viability, T/C (second compound 10 µM, first compound 0.003 µM): 20.6%
- viability, T/C (second compound 10 µM, first compound 0.00949 µM): 26.9%
- viability, T/C (second compound 10 µM, first compound 0.03 µM): 23.6%
- viability, T/C (second compound 10 µM, first compound 0.0949 µM): 23%
- viability, T/C (second compound 10 µM, first compound 0.3 µM): 19.2%

Structure (SMILES): O=C(c1cc(Cc2n[nH]c(=O)c3ccccc23)ccc1F)N1CCN(C(=O)C2CC2)CC1 + NC1CCC(NC2CC2c2ccccc2)CC1
- IC50 (second compound 0.1 µM): 2.73 µM
- IC50 (second compound 0.316 µM): 8.24 µM
- IC50 (second compound 1 µM): 3.58 µM
- IC50 (second compound 3.16 µM): 3.79 µM
- IC50 (second compound 10 µM): 8.94 µM
- viability, T/C (second compound 0.1 µM, first compound 0.0316 µM): 100%
- viability, T/C (second compound 0.1 µM, first compound 0.1 µM): 93%
- viability, T/C (second compound 0.1 µM, first compound 0.316 µM): 93.3%
- viability, T/C (second compound 0.1 µM, first compound 1 µM): 65.5%
- viability, T/C (second compound 0.1 µM, first compound 3.16 µM): 49%
- viability, T/C (second compound 0.1 µM, first compound 10 µM): 44.4%
- viability, T/C (second compound 0.316 µM, first compound 0.0316 µM): 107%
- viability, T/C (second compound 0.316 µM, first compound 0.1 µM): 102%
- viability, T/C (second compound 0.316 µM, first compound 0.316 µM): 99.7%
- viability, T/C (second compound 0.316 µM, first compound 1 µM): 76.2%
- viability, T/C (second compound 0.316 µM, first compound 3.16 µM): 60.1%
- viability, T/C (second compound 0.316 µM, first compound 10 µM): 47.5%
- viability, T/C (second compound 1 µM, first compound 0.0316 µM): 90.8%
- viability, T/C (second compound 1 µM, first compound 0.1 µM): 89.9%
- viability, T/C (second compound 1 µM, first compound 0.316 µM): 90%
- viability, T/C (second compound 1 µM, first compound 1 µM): 76.1%
- viability, T/C (second compound 1 µM, first compound 3.16 µM): 50.8%
- viability, T/C (second compound 1 µM, first compound 10 µM): 44.5%
- viability, T/C (second compound 3.16 µM, first compound 0.0316 µM): 94.1%
- viability, T/C (second compound 3.16 µM, first compound 0.1 µM): 98.5%
- viability, T/C (second compound 3.16 µM, first compound 0.316 µM): 88.6%
- viability, T/C (second compound 3.16 µM, first compound 1 µM): 73.3%
- viability, T/C (second compound 3.16 µM, first compound 3.16 µM): 51.3%
- viability, T/C (second compound 3.16 µM, first compound 10 µM): 42.5%
- viability, T/C (second compound 10 µM, first compound 0.0316 µM): 104%
- viability, T/C (second compound 10 µM, first compound 0.1 µM): 96.3%
- viability, T/C (second compound 10 µM, first compound 0.316 µM): 89.7%
- viability, T/C (second compound 10 µM, first compound 1 µM): 75.7%
- viability, T/C (second compound 10 µM, first compound 3.16 µM): 58.1%
- viability, T/C (second compound 10 µM, first compound 10 µM): 49.5%

From PubChem BioAssay AID1918945 (Molecular Pharmacology Branch, DTP, NCI, 2023)
